“Also recorded” adds a separate entry of the source. Read-outs that look alike come from different tables or passages of the source.
Tests used:
[1] = test system: bacterial T3S; settings: cited from earlier work
[2] = test system: T3S mediated cytotoxic response of HeLa cells infected by Y. pestis
[3] = test system: YopE-B1a secretion; experiment: microbe, parasite or virus in culture; assay type: cell-based, Y. pestis; settings: for IC50 / inhibition at 60 µM: Yersinia pestis
[4] = test system: YopH secretion; assay type: cell-based, Y. pestis
[5] = test system: HeLa cells; experiment: Cytotoxicity of compounds, Lactate Dehydrogenase (LDH) assay; settings: 60 μM
[6] = test system: YopE-B1a translocation to HeLa cells; experiment: cells; assay type: cell-based, Y. pestis
[7] = test system: secretion of Yops; assay type: cell-based, Y. pestis
[8] = test system: Y. pestis; assay type: cell-based
[9] = test system: Y. pestis JG401; assay type: cell-based
[10] = test system: T3S; settings: read-out: IC50 as T3S inhibitor in Y. pseudotuberculosis; cited from earlier work
[11] = read-out: IC50 (μM) of YopE secretion, round 3 lead 1 analogs
[12] = read-out: IC50 of YopE secretion (Table 13)
[13] = read-out: Mean Inhibition (%) (3rd round compound 3 analogs)

CCCCCCCCC[C@H](CCCCCCCC(C)=O)O[C@@H]1O[C@H](CO)[C@@H](O)[C@H](O)[C@H]1O[C@@H]1O[C@H](CO[C@@H]2O[C@H](C)[C@H](O)[C@H](O)[C@@H]2O)[C@@H](OC(C)=O)[C@H](OC(=O)CCC)[C@H]1O[C@@H]1O[C@@H](C)[C@H](O)[C@@H](O)[C@@H]1O [Caminoside A]
activity in screen for bacterial T3S inhibitors [1]: potent activity

Cl.O=C(Nc1cccc(Cl)c1)Nc1cccc(C2=NCCN2)c1 [Compound 1, 1-(3-chlorophenyl)-3-(3-(4,5-dihydro-1H-imidazol-2-yl)phenyl) urea hydrochloride]
inhibition of T3S mediated cytotoxic response (morphological change) [2]: inhibited the cytotoxic response

Cc1ccc(CSc2nc(C(=O)O)ccc2C#N)cc1 [Compound 1, 2-Pyridinecarboxylic acid, 5-cyano-6-[[(4-methylphenyl)methyl]thio]-]
IC50 [3, 11]: < 15 µM | IC50 [3, 12]: > 60 µM

Oc1ccc(Oc2ccc(O)cc2)cc1 [Compound 2-3]
activity against YopH secretion (in words) [4]: showed activity | concentration dependent T3S inhibition (in words) [4]: retained inhibitory activity | cytotoxicity of analogs to HeLa cells (in words) [5]: significant decrease in cytotoxicity; also recorded: overcame the cytotoxicity

Nc1cc(Oc2ccc(O)c(N)c2)ccc1O [Compound 2-4]
cytotoxicity of analogs to HeLa cells (in words) [5]: significant decrease in cytotoxicity

CCC(=O)O.CCC(=O)O.O=C(Nc1cccc(C2=NCCN2)c1)Nc1cccc(C2=NCCN2)c1 [Compound 3 dipropionate, propanoic acid, compd. with N,N′-bis[3-(4,5-dihydro-1H-imidazol-2-yl)phenyl]urea (2:1)]
inhibition of YopE-B1a translocation (in words) ([6]; 80 μM): completely inhibited | inhibition at 40 µM ([6]; Yersinia pestis, HeLa, 40 μM): 50%

Cl.N#Cc1cccc(NC(=O)Nc2cccc(C3=NCCN3)c2)c1 [Compound 3]
inhibition of T3S mediated cytotoxic response (morphological change) [2]: inhibited the cytotoxic response

CC(=O)c1ccc(NC(=O)Nc2cccc(C3=NCCN3)c2)cc1.Cl [Compound 4, 1-(4-acetylphenyl)-3-(3-(4,5-dihydro-1H-imidazol-2-yl)phenyl)urea hydrochloride]
inhibition of T3S mediated cytotoxic response (morphological change) [2]: inhibited the cytotoxic response

Cc1ccc(-c2nn(-c3ccccc3)cc2C2CC(c3cccs3)=NN2C(=O)CCC(=O)O)cc1 (centres unmarked) [Compound 4-5]
activity against YopH secretion (in words) [4]: showed activity

Cc1ccc(-c2nn(-c3ccccc3)cc2C2CC(c3ccccc3)=NN2C(=O)CCC(=O)O)cc1 (centres unmarked) [Compound 4-6]
activity against YopH secretion (in words) [4]: showed activity

O=C(N/N=C/c1cc(Br)cc(Br)c1O)c1ccc([N+](=O)[O-])cc1 [INP0007]
inhibition of secretion of Yops (in words) [7]: inhibited secretion of Yops | inhibition of Y. pestis growth [8]: completely inhibited | promotion of Y. pestis growth at 37° C. in the absence of Ca2+ [9]: did not promote the growth | IC50 [10]: 50 µM

N#Cc1ccc(C(=O)O)nc1SCc1ccc(Cl)cc1 [MC1_1-1, 6-(4-chlorobenzylthio)-5-cyanopicolinic acid]
IC50 [3, 12]: 20 µM

N#Cc1ccc(C(=O)O)nc1SCc1ccccc1 [MC1_1-2, 6-(benzylthio)-5-cyanopicolinic acid]
IC50 [3, 12]: 60 µM

COc1ccc(CSc2nc(C(=O)O)ccc2C#N)cc1 [MC1_1-3, 5-cyano-6-(4-methoxybenzylthio) picolinic acid]
IC50 [3, 12]: > 60 µM

N#Cc1ccc(C(=O)O)nc1SCc1cccc([N+](=O)[O-])c1 [MC1_1-4, 5-cyano-6-(3-nitrobenzylthio) picolinic acid]
IC50 [3, 12]: > 60 µM

N#Cc1ccc(C(=O)O)nc1SCc1ccccc1Cl [MC1_1-5, 6-(2-chlorobenzylthio)-5-cyanopicolinic acid]
IC50 [3, 12]: ≥ 60 µM

N#Cc1ccc(C(=O)O)nc1SCc1ccc(C(F)(F)F)cc1 [MC1_1-8]
IC50 [3, 12]: 55 µM

N#Cc1ccc(C(=O)O)nc1SCc1ccc(OC(F)(F)F)cc1 [MC1_1-9, 5-cyano-6-(4-(trifluoromethoxy)benzylthio) picolinic acid]
IC50 [3, 12]: 30 µM

N#Cc1ccc(C(=O)O)nc1Sc1ccc(Cl)cc1 [MC1_2-3, 6-(4-chlorophenylthio)-5-cyanopicolinic acid]
IC50 ([3]; read-out: IC50 (μM) of YopE secretion, 2nd round compound 1 analogs): < 15 µM | inhibition at 60 µM ([3]; 60 μM, read-out: Mean Inhibition (%) of YopE-B1a secretion (Table 14)): 95.9% | inhibition at 60 µM ([3]; 60 μM, read-out: inhibition on YopE-B1a secretion): ~95%

CNC(=O)c1ccc(C#N)c(SCc2ccc(Cl)cc2)n1 [MC1_3-1]
inhibitory activity on YopE-B1a secretion (in words) [3]: showed inhibitory activity | IC50 [3, 11]: < 15 µM

COC(=O)c1ccc(C#N)c(SCc2ccc(Cl)cc2)n1 [MC1_3-2]
inhibitory activity on YopE-B1a secretion (in words) [3]: showed inhibitory activity | IC50 [3, 11]: 20 ± 5 µM

N#Cc1ccc(C(N)=O)nc1SCc1ccc(Cl)cc1 [MC1_3-3]
inhibitory activity on YopE-B1a secretion (in words) [3]: showed inhibitory activity | IC50 [3, 11]: 50 ± 5 µM

O=C(Nc1cccc(C2=NCCN2)c1)Nc1cccc([N+](=O)[O-])c1 [MC3_1-2]
activity against YopH secretion (in words) [4]: showed inhibition | concentration dependent T3S inhibition (in words) [4]: concentration dependent inhibitory activities

N#Cc1cccc(NC(=O)Nc2cccc(C3=NCCN3)c2)c1 [MC3_1-3]
concentration dependent T3S inhibition (in words) [4]: concentration dependent inhibitory activities

O=C(Nc1cccc(C2=NCCN2)c1)Nc1cccc(C(F)(F)F)c1 [MC3_1-9]
concentration dependent T3S inhibition (in words) [4]: concentration dependent inhibitory activities

O=C(Nc1cccc(Br)c1)Nc1cccc(C2=NCCN2)c1 [MC3_1-10]
concentration dependent T3S inhibition (in words) [4]: concentration dependent inhibitory activities

O=C(Nc1cccc(Cl)c1)Nc1cccc(C2=NCCN2)c1 [MC3_1-16]
concentration dependent T3S inhibition (in words) [4]: concentration dependent inhibitory activities

FC(F)(F)c1cc(Nc2nc3cc(C4=NCCN4)ccc3o2)ccc1Cl [MC3_3-1]
inhibition at 60 µM [3, 13]: 69.8%

FC(F)(F)c1cc(Nc2nc3cc(C4=NCCCN4)ccc3o2)ccc1Cl [MC3_3-2]
inhibition at 60 µM [3, 13]: 49%

FC(F)(F)c1cc(Nc2nc3ccc(C4=NCCN4)cc3o2)ccc1Cl [MC3_3-3]
inhibition at 60 µM [3, 13]: 103%

FC(F)(F)c1cc(Nc2nc3ccc(C4=NCCN4)cc3[nH]2)ccc1Cl [MC3_3-4]
inhibition at 60 µM [3, 13]: 0%

— US9340505B2, “Type III secretion inhibitors, analogs and uses thereof” (priority 2007, dated 2016)
